From patent US20030005484A1, “Microbiocidal and pesticidal aromatic aldehydes” (ProGuard, Inc., priority 1994, published 2003) come the findings set out here.

Data set [1] concerns Silverleaf Whitefly (Bemisia argentifolii). The data set can be described thus: silverleaf whitefly 1st and 2nd instars on poinsettia. The note with it: 0.5% cinnamic aldehyde and […] Tween 20, 48 hours. In kind it is in vivo. On the procedure:
Clip cages were set on poinsettia plants leaves to capture white fly adults which then were allowed to oviposit for 48 hours. Four plants per treatment or control were put into an environmental chamber and the eggs allowed to incubate for 5 days until a majority of the eggs had hatched to first and second instar. Three treatments at 0.5% cinnamic aldehyde and 0.25% Tween 20 (T1, T2, T3) and three control treatments of 0.25% Tween 20 only (C1, C2, C3) were sprayed to run off on each plant. Mortality was recorded after 48 hours (see Table 23).

The next data set relates to Stubby Root nematode. The data set can be described thus: vineyard grape vines, nematode infestation: stubby root. It is filed as in vivo. On the procedure: The subject formulations were tested for ability to reduce grape vine infestation by root knot, ring, stubby root, and roll lesion nematodes. Grape vines (Harmony rootstock) in a vinyard were treated with 1000 ppm or 3000 ppm cinnamaldehyde in 2% Tween 80, the commercial anti-nematode agent Nemacur, or a formulation blank. The extent of nematode infestation was determined at the time of treatment and at 30 and 60 days post-treatment.

In data set [2] the test system is melon aphid (Aphis gossypii Glover). Description: melon aphid plant foliar bioassay on chrysanthemum. It is filed as in vivo. As to conditions: for Mean Number of Aphid Nymphs Per Leaf: sprayed to runoff, after 36 hours, pre-count 60. The procedure: Treatment of melon aphid (Aphis gossypii Glover) was conducted as follows. Chrysantemums (C. morifolum) were used for melon aphid plant foliar bioassays. Plants were grown in […] pots in planting soil in greenhouse. Flowering plants were infested and pre-count population size for each plant were taken and number of mean of aphids nymphs per leaf calculated. The plants were sprayed to runoff (about 5 ml) with an aqueous formulation containing 1,000 ppm, 3,000 ppm, and 10,000 ppm concentration of cinnamic aldehyde, and a negative control containing only H2O. After 36 hours, the number of insects on the leaves sprayed with a given test formulation was determined and compared with that of insects on leaves sprayed with negative control only. Mean number of aphid nymphs per leaf were determined to be less than 10 for each cinnamic aldehyde concentration as compared to a pre-count mean of about 60.

The test system of data set [3] is leafhoppers (western grape leafhopper and Virginia creeper leafhopper nymphs). The data set can be described thus: leafhoppers on grapevines, 1% and 2% spray. It is filed as in vivo. The note with it: for mean number of leafhoppers per leaf: one day after treatment, across cultivars, control 26.53. On the procedure: Treatment of leafhoppers (western grape leafhopper (WGL) and Virginia creeper leafhopper nymphs(VCLH)) on grapevines with cinnamic aldehyde was conducted to evaluate the protective effect of cinnamic aldehyde in different concentrations against leafhoppers on plants. A single application of 1% or 2% cinnamic aldehyde in 0.1% Tween-20 was sprayed onto the leaves of grapevines of different grape varietals (Cabernet Sauvignon, Chardonnay, Emerald Reisling and Pinot Noir) with a backpack CO2 powered sprayer at the field equivalent rate of approximately 150 gal./acre (0.5 gal. per treatment plot). Coverage on the bottom of grape leaves, where most leafhopper nymphs feed, ranged from 70%-80%. The number of leafhoppers on the leaves was counted prior to spraying and 1 day after spraying. Leafhopper numbers on grape vines were assessed by sampling 2 leaves from each of 3 grape vines per treatment (with a single vine buffer between each treatment), for which 2-3 replicates per treatment were examined. Control plants were untreated. Both concentrations of cinnamic aldehyde reduced the mean number of leafhoppers per leaf as compared to the control. The mean number of leafhoppers was defined as the sum of WGL plus VCLH per leaf.

The next data set concerns rust. The data set can be described thus: rust (and spores) on roses, disease rating / MPDC after foliar spray. It is filed as in vivo, Phragmidrium mucronatrum. The procedure:
Each formulation is evaluated for its effect on specific pests and/or plant host using any of the compounds of formula (1) as well as other components of the formulation such as Tween 80 and/or sodium bicarbonate, with the combination and effective amount of each component adapted for a particular application to minimize toxicity while maintaining or increasing the antipathogenic effect of the formulation. The effective amount of each component may be determined by systematically varying the amount of that component in a test formulation, treating a plant of interest with the test formulation, and monitoring the level of pest infestation compared to an untreated control plant. An effective amount of a test component is identified as the amount that controls the growth of the pathogen on the plant host, thus reducing the disease rating of the plant. The mean percentage disease […] (MPDC) can be calculated for each particular application. MPDC is defined by the formula: [formula] Eight cultivars of rose were tested to investigate the effect of a cinnamic aldehyde/NaHCO3 formulation on rust and spores. The cultivars used included Moss unnamed (Moss), […], Rosette Delize (Hybrid Tea), Rosa Rugosa Rubra (Rugosa), Abel Morrison (Hybrid perpetual), John Laing, Betty Prior, and Rose de Roi. […] The Hybrid Tea and Hybrid perpetual were rated 3 and the Rugosa was rated 1. […] Control plants received no treatment. […] Moreover, the treatment appeared to have induced systemic resistance. […] Plants were an average of 0.86 m apart. […] Controls were untreated plants. […] Weekly reviews were made of the various plants. […] Six cultivars of infected rose in dedicated experimental rose gardens were used. Four Mrs. John Laing (Hybrid perpetual) and two Marchionese of Londonderry (Hybrid perpetual) rose plants were treated with one of two formulations of coniferyl aldehyde. […] The first two Mrs. […] Mrs. […] Both Marchionese of Londonderry plants (P5 and P6) were rated 5 for powdery mildew and rust after Paulus and Nelson (supra). Two treatment formulae were used for this trial. […] Control plants were sprayed with water alone. The change in the rating from pre-treatment to post-treatment was calculated as the mean percentage of disease control (MPDC) as described herein.

The next data set relates to Spider Mites. The data set can be described thus: spider mites on cabernet sauvignon grapevines, 0.3% spray. It is filed as in vivo. As to conditions: 0.3% CNMA; two days after spraying; untreated 17.9. The procedure: The effect of 0.3% cinnamic aldehyde on leafhoppers and spider mites on grapevine leaves was examined. 30% cinnamic aldehyde was diluted 1:100 in water and sprayed one time on a 1 acre block of cabernet sauvignon grapevines in a vineyard using a 300 gal Pul-Blast rsprayer at 160 psi. 120 gal. were applied to one acre of vineyard. As a control, a one-acre block remained untreated. Blocks were pseudo-replicated so as to obtain an indication of the reliability of the treatment. Prior to treatment mites on leaves were pre-counted using a dissecting microscope. Leafhopper numbers also were determined in the field prior to treatment. Two days after spraying, two leaves, one from the basal portion and one from the proximal portion of the vine were examined from 16 vines from 2 rows for each treatment. Leaf samples also were taken from both sides of the vines (north and south) to include variation due to vine exposure. […]

Setting [4] is: potted roses, ~100 ml foliar spray of 5 g cinnamic aldehyde, 80 g NaHCO3, 10 g Tween 80 per 1000 g, weekly saponin, observed 8 weeks.

For `O=C/C=C/c1ccccc1` [cinnamic aldehyde], the “Alive, total of T1-T3” value in data set [1] came out at 35. The “Dead, total of T1-T3” value in data set [1] worked out at 363. In data set [1] (T1-T3 combined, Tween 20 control 9%), the “Mortality (%)” value is listed as 91%. The “Stubby Root, nematodes per 250 cc soil” value in the data set on Stubby Root nematode (1000 ppm in 2% Tween 80, 30 days post-treatment) was 45 per 250 cc soil; with Stubby Root nematode (1000 ppm in 2% Tween 80, 60 days post-treatment), 36.2 per 250 cc soil; in the data set on Stubby Root nematode (1000 ppm in 2% Tween 80, day 0 (time of treatment)), 13.8 per 250 cc soil; in the data set with Stubby Root nematode (3000 ppm in 2% Tween 80, 30 days post-treatment), 8.8 per 250 cc soil; in the data set with Stubby Root nematode (3000 ppm in 2% Tween 80, 60 days post-treatment), 43.5 per 250 cc soil; in the data set with Stubby Root nematode (3000 ppm in 2% Tween 80, day 0 (time of treatment)), 0.8 per 250 cc soil. Moreover, the “Mean Number of Aphid Nymphs Per Leaf” value in data set [2] (CNMA 1,000 ppm in H2O) is 6 ± 3; in data set [2] (CNMA 3,000 ppm in H2O), 4 ± 3; in data set [2] (CNMA 10,000 ppm in H2O) it was 1 ± 1. Besides, the “Mean number of aphid nymphs per leaf” value in data set [2] (each concentration (1,000, 3,000, 10,000 ppm), pre-count mean of about 60) is recorded as “less than 10”. In addition, the “mean number of leafhoppers per leaf” value came out at 4.33 leafhoppers per leaf in data set [3] (1% in 0.1% Tween-20) and 2.13 leafhoppers per leaf in data set [3] (2% in 0.1% Tween-20). Moreover, the “MEAN LEAFHOPPERS/LEAF” value in data set [3] (Cabernet, 1% CNMA, control 15.33) was found to be 3.0; in data set [3] (Chardonnay, 2% CNMA, control 23.75), 3.83; in data set [3] (Emerald Reisling, 1% CNMA, control 51.12), 5.67; in data set [3] (Pinot Noir, 2% CNMA, control 19.44), 1.0. Moreover, in the data set on rust (field rose Rose de Roi, same single spray, five week trial), the “Mean Percentage of Disease Control (MPDC), rust” value stood at 85.0%. Besides, in the data set with rust (setting [4]), the “rust after a single treatment” value is given as “eradicative”. Further, the “spores after a single treatment” value in the data set on rust (setting [4]) is reported as “eradicative”. In the data set with Spider Mites, the MITES/LEAF was found to be 3.27.
